From US20120245161A1 (SANOFI, priority 2009, published 2012)
Values joined by “and” are separate entries in the source; they are usually repeats but may differ in a detail not shown here. Equal entries are not always repeated. Structures can show the parent of a compound that is named as a salt.

target: T1, recombinant human beta tryptase (Homo sapiens, UniProt P20231); test: beta-Tryptase inhibition, chromogenic enzyme assay (substrate S2366, read at 405 nm); format: biochemical; settings: Ki calculated from IC50: Ki=IC50/(1+[Substrate]/Km); 0.5 mM substrate, room temperature; read-out: Tryptase Ki
T1 construct: made in house; host or cells: yeast cells
T1 sequence (P20231 31-275): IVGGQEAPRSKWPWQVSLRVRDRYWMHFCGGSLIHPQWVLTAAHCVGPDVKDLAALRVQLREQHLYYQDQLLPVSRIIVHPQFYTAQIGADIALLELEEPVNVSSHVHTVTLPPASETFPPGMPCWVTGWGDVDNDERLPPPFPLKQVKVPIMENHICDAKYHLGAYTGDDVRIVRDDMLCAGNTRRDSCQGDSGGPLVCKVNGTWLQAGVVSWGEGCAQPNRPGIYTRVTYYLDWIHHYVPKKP
Description: Inhibition of this catalytic activity may be measured by the in vitro enzyme assay and the cellular assay.
Tryptase inhibition activity is confirmed using either isolated human lung tryptase or recombinant human beta tryptase expressed in yeast cells. Essentially equivalent results are obtained using isolated native enzyme or the expressed enzyme. The assay procedure employs a 96 well microplate (Costar 3590) using L-pyroglutamyl-L-prolyl-L-arginine-para-nitroanilide (S2366: Quadratech) as substrate (essentially as described by McEuen et. al. Biochem Pharm, 1996, 52, pages 331-340). Assays are performed at room temperature using 0.5 mM substrate (2×Km) and the microplate is read on a microplate reader (Beckman Biomek Plate reader) at 405 nm wavelength.
Materials and Methods for Tryptase primary screen (Chromogenic assay)
S2366 (Stock solutions of 2.5 mM).
Purified recombinant beta Tryptase Stocks of 310 μg/mL. Protocol (Single point determination) • Add 60 μL of diluted substrate (final concentration of 500 μM in assay buffer) to each well • Add compound in duplicates, final concentration of 20 volume 20 • Add enzyme at a final concentration of 50 ng/mL in a volume of 20 • Total volume for each well is 100 • Agitate briefly to mix and incubate at room temp in the dark for 30 minutes • Read absorbencies at […] Each plate has the following controls: • Totals: 60 μL of substrate, 20 μL of buffer (with 0.2% final concentration of DMSO), • 20 μL of enzyme Non-specific: 60 μL of substrate, 40 μL of buffer (with 0.2% DMSO) Totals: 60 μL of substrate, 20 μL of buffer (No DMSO), 20 μL of enzyme Non-specific: 60 μL of substrate, 40 μL of buffer (No DMSO) Protocol (IC50 and Ki determination)
The protocol is essentially the same as above except that the compound is added in duplicates at the following final concentrations: 0.01, 0.03, 0.1, 0.3, 1, 3, 10 μM (All dilutions carried out manually). For every assay, whether single point or IC50 determination, a standard compound is used to derive IC50 for comparison. From the IC50 value, the Ki can be calculated using the following formula: Ki=IC50/(1+[Substrate]/Km).

Point of comparison: `Cc1cccc2c(C(=O)N3CCC(c4cc(CN)ccc4F)CC3)cn(CCn3ccnc3)c12` [Example 62, [4-(5-Aminomethyl-2-fluoro-phenyl)-piperidin-1-yl]-[1-(2-imidazol-1-yl-ethyl)-7-methyl-1H-indol-3-yl]-methanone dihydrochloride], Ki 22 nM. Against it:
- COCCn1cc(C(=O)N2CCC(c3cc(CN)ccc3F)CC2)c2c(-c3ccnc(OC)c3)cccc21 [Example 85, [4-(5-Aminomethyl-2-fluoro-phenyl)-piperidin-1-yl]-[1-(2-methoxy-ethyl)-4-(2-methoxy-pyridin-4-yl)-1H-indol-3-yl]-methanone dihydrochloride] — 2.4-fold lower, 9 nM
- COCCn1cc(C(=O)N2CCC(c3cc(CN)ccc3F)CC2)c2c(Cl)cccc21 [Example 42, [4-(5-Aminomethyl-2-fluoro-phenyl)-piperidin-1-yl]-[4-chloro-1-(2-methoxy-ethyl)-1H-indol-3-yl]-methanone] — 5.6-fold higher, 123 nM
- CCCn1cc(-c2cccc3c2c(C(=O)N2CCC(c4cc(CN)ccc4F)CC2)cn3CCOC(F)(F)F)cn1 [Example 93, [4-(5-Aminomethyl-2-fluoro-phenyl)-piperidin-1-yl]-[4-(1-propyl-1H-pyrazol-4-yl)-1-(2-trifluoromethoxy-ethyl)-1H-indol-3-yl]-methanone dihydrochloride] — 7.3-fold higher, 160 nM

same assay, conditions: Tryptase Ki (nM), Ki calculated from IC50: Ki=IC50/(1+[Substrate]/Km); 0.5 mM substrate, room temperature

Point of comparison: `NCc1ccc(F)c(C2CCN(C(=O)c3cn(CCOC(F)(F)F)c4cccc(Br)c34)CC2)c1` [Example 79, 4-(5-Aminomethyl-2-fluoro-phenyl)-piperidin-1-yl]-[4-bromo-1-(2-trifluoromethoxy-ethyl)-1H-indol-3-yl]-methanone hydrochloride], Ki 935 nM. Against it:
- CCCCn1cc(C(=O)N2CCC(c3cc(CN)ccc3F)CC2)c2c(OC)cccc21 [Example 46, [4-(5-Aminomethyl-2-fluoro-phenyl)-piperidin-1-yl]-(1-butyl-4-methoxy-1H-indol-3-yl)-methanone hydrochloride] — 9.9-fold lower, 94 nM
- COCCn1cc(C(=O)N2CCC(c3cc(CN)ccc3F)CC2)c2c(-c3cccc(O)c3)cccc21 [Example 72, [4-(5-Aminomethyl-2-fluoro-phenyl)-piperidin-1-yl]-[4-(3-hydroxy-phenyl)-1-(2-methoxy-ethyl)-1H-indol-3-yl]-methanone hydrochloride] — 72-fold lower, 13 nM
- Cc1cccc2c(C(=O)N3CCC(c4cc(CN)ccc4F)CC3)cn(CCCF)c12 [Example 16, [4-(5-Aminomethyl-2-fluoro-phenyl)-piperidin-1-yl]-[1-(3-fluoro-propyl)-7-methyl-1H-indol-3-yl]-methanone hydrochloride] — 9.6-fold lower, 97 nM
- COCCn1cc(C(=O)N2CCC(c3cc(CN)ccc3F)CC2)c2c(NC(=O)C3CCN(C)CC3)cccc21 [Example 97, 1-Methyl-piperidine-4-carboxylic acid [3-[4-(5-aminomethyl-2-fluoro-phenyl)-piperidine-1-carbonyl]-1-(2-methoxy-ethyl)-1H-indol-4-yl]-amide hydrochloride] — 33-fold lower, 28 nM
- COCCn1cc(C(=O)N2CCC(c3cc(CN)ccc3F)CC2)c2c(-c3cccs3)cccc21 [Example 64, [4-(5-Aminomethyl-2-fluoro-phenyl)-piperidin-1-yl]-[1-(2-methoxy-ethyl)-4-thiophen-2-yl-1H-indol-3-yl]-methanone hydrochloride] — 24-fold lower, 39 nM
- COCCn1cc(C(=O)N2CCC(c3cc(CN)ccc3F)CC2)c2c(N)cccc21 [Example 75, [4-(5-Aminomethyl-2-fluoro-phenyl)-piperidin-1-yl]-[4-amino-1-(2-methoxy-ethyl)-1H-indol-3-yl]-methanone hydrochloride] — 16-fold lower, 59 nM
- COCCn1cc(C(=O)N2CCC(c3cc(CN)ccc3F)CC2)c2cccc(C3CC3)c21 [Example 6, [4-(5-Aminomethyl-2-fluoro-phenyl)-piperidin-1-yl]-[7-cyclopropyl-1-(2-methoxy-ethyl)-1H-indol-3-yl]-methanone hydrochloride] — 47-fold lower, 20 nM
- NCc1ccc(F)c(C2CCN(C(=O)c3cn(CCO)c4c(OC(F)(F)F)cccc34)CC2)c1 [Example 22, [4-(5-Aminomethyl-2-fluoro-phenyl)-piperidin-1-yl]-[1-(2-hydroxy-ethyl)-7-trifluoromethoxy-1H-indol-3-yl]-methanone hydrochloride] — 2.4-fold lower, 390 nM
- NCc1ccc(F)c(C2CCN(C(=O)c3cn(CCc4ccccc4)c4ccccc34)CC2)c1 [Example 15, [4-(5-Aminomethyl-2-fluoro-phenyl)-piperidin-1-yl]-(1-phenethyl-1H-indol-3-yl)-methanone hydrochloride] — 52-fold lower, 18 nM
- COCCn1cc(C(=O)N2CCC(c3cc(CN)ccc3F)CC2)c2c(NC(=O)C3CCCN(C)C3)cccc21 (stereo not drawn) [Example 122, 1-Methyl-piperidine-3-carboxylic acid [3-[4-(5-aminomethyl-2-fluoro-phenyl)-piperidine-1-carbonyl]-1-(2-methoxy-ethyl)-1H-indol-4-yl]-amide hydrochloride] — 21-fold lower, 44 nM
- COCCn1cc(C(=O)N2CCC(c3cc(CN)ccc3F)CC2)c2c(NC(=O)c3cncnc3)cccc21 [Example 102, Pyrimidine-5-carboxylic acid [3-[4-(5-aminomethyl-2-fluoro-phenyl)-piperidine-1-carbonyl]-1-(2-methoxy-ethyl)-1H-indol-4-yl]-amide hydrochloride] — 42-fold lower, 22 nM
- COCCn1cc(C(=O)N2CCC(c3cc(CN)ccc3F)CC2)c2c(C(=O)NC3CC3)cccc21 [Example 123, 3-[4-(5-Aminomethyl-2-fluoro-phenyl)-piperidine-1-carbonyl]-1-(2-methoxy-ethyl)-1H-indole-4-carboxylic acid cyclopropylamide hydrochloride] — 19-fold lower, 50 nM
- COCCn1cc(C(=O)N2CCC(c3cc(CN)ccc3F)CC2)c2c(NC(C)=O)cccc21 [Example 96, N-[3-[4-(5-Aminomethyl-2-fluoro-phenyl)-piperidine-1-carbonyl]-1-(2-methoxy-ethyl)-1H-indol-4-yl]-acetamide hydrochloride] — 52-fold lower, 18 nM
- COCCn1cc(C(=O)N2CCC(c3cc(CN)ccc3F)CC2)c2c(C3CC3)cccc21 [Example 52, [4-(5-Aminomethyl-2-fluoro-phenyl)-piperidin-1-yl]-[4-cyclopropyl-1-(2-methoxy-ethyl)-1H-indol-3-yl]-methanone hydrochloride] — 19-fold lower, 49 nM
- CCCn1cc(-c2cccc3c2c(C(=O)N2CCC(c4cc(CN)ccc4F)CC2)cn3CCOC)cn1 [Example 67, [4-(5-Aminomethyl-2-fluoro-phenyl)-piperidin-1-yl]-[1-(2-methoxy-ethyl)-4-(1-propyl-1H-pyrazol-4-yl)-1H-indol-3-yl]-methanone hydrochloride] — 78-fold lower, 12 nM
- COCCn1cc(C(=O)N2CCC(c3cccc(CN)c3F)CC2)c2cccc(C)c21 [Example 117, [4-(3-Aminomethyl-2-fluoro-phenyl)-piperidin-1-yl]-[1-(2-methoxy-ethyl)-7-methyl-1H-indol-3-yl]-methanone hydrochloride] — within 1.5-fold, 756 nM
- Cc1cccc2c(C(=O)N3CCC(c4cc(CN)ccc4F)CC3)cn(CCCO)c12 [Example 17, hydrochloride] — 25-fold lower, 37 nM
- CNC(=O)COc1ccc(CN)cc1C1CCN(C(=O)c2cn(CCOC)c3c(OC(F)(F)F)cccc23)CC1 [Example 28, 2-(4-Aminomethyl-2-{1-[1-(2-methoxy-ethyl)-7-trifluoromethoxy-1H-indole-3-carbonyl]-piperidin-4-yl}-phenoxy)-N-methyl-acetamide hydrochloride] — 1.7-fold lower, 538 nM
- CCCCOc1ccc(CN)cc1C1CCN(C(=O)c2cn(CCOC)c3c(C)cccc23)CC1 [Example 114, [4-(5-Aminomethyl-2-butoxy-phenyl)-piperidin-1-yl]-[1-(2-methoxy-ethyl)-7-methyl-1H-indol-3-yl]-methanone hydrochloride] — 1.8-fold lower, 526 nM

With `Cc1cccc2c(C(=O)N3CCC(c4cc(CN)ccc4F)CC3)cn(CCc3ccccc3)c12` [Example 5, [4-(5-Aminomethyl-2-fluoro-phenyl)-piperidin-1-yl]-(7-methyl-1-phenethyl-1H-indol-3-yl)-methanone hydrochloride] the Ki was 96 nM and 56 nM.

same assay, conditions: Tryptase Ki (nM), additional value in parentheses tagged "8923" (code not explained)

Work on `Cc1cccc2c(C(=O)N3CCC(c4cc(CN)ccc4F)CC3)cn(CCc3ccccc3)c12` [Example 5, [4-(5-Aminomethyl-2-fluoro-phenyl)-piperidin-1-yl]-(7-methyl-1-phenethyl-1H-indol-3-yl)-methanone hydrochloride] yielded a Ki of 11 nM.

same assay, conditions: Tryptase Ki, cell prints its own unit uM under a head in nM

Work on `COCCn1cc(C(=O)N2CCC(c3cc(CN)ccc3OCC(=O)O)CC2)c2cccc(C)c21` [Example 33, (4-Aminomethyl-2-{1-[1-(2-methoxy-ethyl)-7-methyl-1H-indole-3-carbonyl]-piperidin-4-yl}-phenoxy)-acetic acid hydrochloride] yielded a Ki of over 10000 nM.
